# Measurements reported in patent US20240417798A1, “THERAPY SELECTION AND TREATMENT OF NEURODEGENERATIVE DISORDERS” (Anavex Life Sciences Corp., priority 2021, published 2024).
# Key:
# [1] = test system: patients with Parkinson's Disease Dementia (PDD); test: Phase 2 ANAVEX2-73-PDD-001 study, randomized, double blind, placebo-controlled, oral capsules once daily for 14 weeks; format: in vivo, human
# Method: In order to assess the safety, tolerability and efficacy of ANAVEX®2-73 (blarcamesine) oral capsules in treating cognitive impairment in patients with Parkinson's Disease with Dementia (PDD), a phase 2 study, coded “ANAVEX®2-73-PDD-001 study” (FIG. 1), was conducted. The study was multi-center, randomized, double blind, placebo-controlled, parallel group with 3-arm. The study included a 2-week Screening/Baseline Observation Period and a 14-week Treatment Period (including a 2 week Titration Period), and a 2-week Safety Follow-Up Period. A total of 132 patients were enrolled in the study and were randomly assigned to three testing arms (FIG. 1). In ANAVEX2-73 High Dose arm, 44 patients were given oral capsules of ANAVEX2-73 once daily in an escalating dose of 10 mg, 20 mg, 30 mg and 50 mg. In ANAVEX2-73 Mid Dose arm, 44 patients were given oral capsules of ANAVEX2-73 once daily in an escalating dose of 10 mg, 20 mg, and 30 mg. In placebo group, 44 patients were given placebo capsules. Outcome measures included Cognitive Drug Research (CDR) Computerized Assessment System on Continuity of Attention; Change from Baseline to End of Treatment in Continuity of Attention as measured by Cognitive Drug Research (CDR) Computerized Assessment System Continuity of Attention; Number of participants with treatment-related adverse events as assessed by CTCAE v4.0 [Time Frame: 14 weeks]; Assessment of the safety and tolerability of ANAVEX2-73 compared to placebo; MDS-UPDRS Part III Total Score (Motor Scores); Change from baseline to End of Treatment as measured by MDS-UPDRS Part III Total Score (Motor Scores); SDS-CL-25 [Time Frame: 14 weeks]; Incidence of sleep disorders symptoms (SDS-CL-25); and DNA/RNA Sequencing.
# The trial enrolled 132 adults, ages 50-85, with PDD, and was successfully concluded in September 2020. Participants, recruited at multiple sites in Spain and Australia, were randomly assigned to one of two doses groups (with an escalating ANAVEX 2-73 dose up to 30 or 50 mg oral capsules) or to a placebo, once daily for 14 weeks (see FIG. 1 for details). The trial's main goals were to assess the therapy's safety and changes in patients' cognitive function, measured using the cognitive drug research computerized assessment system—a test that looks at multiple cognitive skills, such as choice reaction time (choosing between similar objects), vigilance, and episodic memory (remembering new personal experiences or shared information). Secondary goals included changes in patients' motor abilities—assessed with the Movement Disorders Society Unified Parkinson's Disease Rating Scale (MDS-UPDRS) Part III—and sleep quality. […] This sleep disorder is associated with greater cognitive impairment and a higher risk of dementia. […]
# [2] = test system: gene clusters (Cluster 1, Cluster 2) of neurodegenerative pathways; test: Whole Blood Transcriptomics Analysis (RNAseq) of PDD patients, baseline vs Week 14, WGCNA gene clusters and pathway analysis; format: in vivo, human
# Method: In order to gain insights into ANAVEX 2-73 response pathways, during the Phase 2 study, patients' DNA and RNA sequencing were analyzed. Transcriptomic samples of 65 patients enrolled in either High Dose or Mid Dose arms were collected at baseline and at the end of treatment (Week 14). The expression of 14,150 genes was measured. No transformation was applied to the TPM values. Values associated with a with RIN≤4.0 were discarded. The actual dose of ANAVEX 2-73 (blarcamesine) that was given to each patient during the trial was assessed and integrated into the database. […]
# The genes were clustered together using WGCNA, starting from their correlation of TPM expression values across samples. […] For each cluster, the contrast ActualDose, i.e. treated vs placebo were evaluated across all timepoints. […] The ratio between cluster size and number of pathways was calculated, and top 2 clusters were retained for further Analysis. […] Known interactions between the genes of the cluster were assessed using STRING database with the parameters of Edge score >0.150, and no text mining edges. […]
# Whole Blood Transcriptomics Analysis (RNAseq) of patients with Parkinson's disease dementia (PDD) was performed for the ANAVEX®2-73-PDD-001 study (FIG. 1) at two timepoints: Baseline and Week 14 (end of trial). All available RNA samples with […] (RNA integrity number, using 130 samples) were analyzed. […]
# SIGMAR1 = SIGMAR1 levels in patients of the PDD-001 trial; format: in vivo, human; conditions: use by PDD patients; rise associated with improved attention measures and reduced MDS-UPDRS total and Part III
# Method: The trial enrolled 132 adults, ages 50-85, with PDD, and was successfully concluded in September 2020. Participants, recruited at multiple sites in Spain and Australia, were randomly assigned to one of two doses groups (with an escalating ANAVEX 2-73 dose up to 30 or 50 mg oral capsules) or to a placebo, once daily for 14 weeks (see FIG. 1 for details). The trial's main goals were to assess the therapy's safety and changes in patients' cognitive function, measured using the cognitive drug research computerized assessment system—a test that looks at multiple cognitive skills, such as choice reaction time (choosing between similar objects), vigilance, and episodic memory (remembering new personal experiences or shared information). Secondary goals included changes in patients' motor abilities—assessed with the Movement Disorders Society Unified Parkinson's Disease Rating Scale (MDS-UPDRS) Part III—and sleep quality. […] This sleep disorder is associated with greater cognitive impairment and a higher risk of dementia. […] After 14 weeks, the MDS-UPDRS total score dropped by 10.98 points (indicating an easing in disease severity) in the high-dose group and rose by 3.53 points in the placebo group. This represented an adjusted mean improvement of 14.51 points—surpassing the established, clinically meaningful 7.1 point-cut-off—and a relative improvement of 18.9% over 14 weeks. […]
# [3] = test system: patients with Parkinson's Disease Dementia (PDD); conditions: previously reported results; cited from earlier work
# [4] = target: T1, Sigma-1 receptor (SIGMAR1) (Homo sapiens, UniProt Q99720); conditions: quantitative PET scan; cited from earlier work
# T1 construct: host or cells: in vivo PET scan
# T1 sequence (Q99720 whole entry, species assumed): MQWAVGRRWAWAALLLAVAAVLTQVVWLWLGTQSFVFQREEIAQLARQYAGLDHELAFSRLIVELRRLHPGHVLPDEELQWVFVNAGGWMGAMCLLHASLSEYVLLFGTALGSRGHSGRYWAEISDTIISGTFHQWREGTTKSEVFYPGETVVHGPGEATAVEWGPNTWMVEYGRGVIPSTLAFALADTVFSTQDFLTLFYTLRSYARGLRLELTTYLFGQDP
structure (smiles),measurement,setting,value
"CN(C)CC1CCOC1(c1ccccc1)c1ccccc1.Cl (centres unmarked) [ANAVEX 2-73, tetrahydro-N, N-dimethyl-2,2-diphenyl-3-furanmethanamine hydrochloride]","Cognitive and sleep benefits, current trial data",[1]; data obtained from the current trial,confirmed these cognitive and sleep benefits
same,"MDS-UPDRS total score, adjusted mean improvement vs placebo","[1]; high dose (50 mg), 14 weeks, clinically meaningful cut-off 7.1 points",14.51 points
same,"MDS-UPDRS total score, relative improvement","[1]; high dose (50 mg), over 14 weeks",18.9%
same,"MDS-UPDRS total score, drop from baseline (easing in disease severity)","[1]; high-dose group (50 mg), after 14 weeks",10.98 points
same,"Expression of both identified gene clusters, treated patients compared to placebo",[2]; after 14 weeks of treatment,up-regulated
same,"Dysregulations of Cluster 1 and Cluster 2, link to dose","[2]; linear mixed effect model, Dunnett's test",significantly linked to the highest dose
same,SIGMAR1 levels,SIGMAR1,significant increase in SIGMAR1 levels
same,Cognitive skills,[3],significantly improved several cognitive skills
same,REM sleep behavior disorder,[3],lessened REM sleep behavior disorder
same,Safety,[3],generally safe
same,Direct occupancy at SIGMAR1,[4],has been established
